According to a melting point compilation (Tetko et al.; mined from patent text by program, amines drawn as free bases though some values may be those of a salt):

melting point [°C]	SMILES
235 to 238	CC(=O)NCCc1ccc(NC(=O)C=C2CC(C(=O)OCc3ccccc3)Nc3cc(Cl)cc(Cl)c32)cc1 (racemic)
120 to 122	CC(=O)NC1CCC2C(C1)c1c(OC(C)=O)cc(OC(C)CCCc3ccccc3)cc1N(C)C2C (stereo not given)
128 to 135	CCCn1c(=O)cc(S(=O)(=O)CCC)n(Cc2ccc(-c3ccccc3-c3nnn[nH]3)cc2)c1=O
253 to 259	Cc1cccc(C)c1Oc1cc2c(cc1Cl)C=C(C(=O)O)C(C(F)(F)F)O2 (stereo not given)
153 to 154	Cc1ccc(-c2cccc(/C=C/C(=O)Nc3ccc(CN4CCCC(CO)C4)cc3)c2)cc1 (stereo not given)
242 to 243	O=C(NC1CC1)c1[nH]c2ccc(Cl)cc2c1S(=O)(=O)c1ccccc1
90 to 100	Cc1cnc(-c2ccc(-c3ccccc3S(=O)(=O)Nc3onc(C)c3C)cc2)o1
203	CC(=O)Oc1ccc(-c2cc3ccccc3[nH]2)cc1
205 to 207	CS(=O)(=O)c1ccc(-c2nc(=O)c3ccccc3s2)cn1
73 to 75	CC(C)CC(CNOCc1ccccc1)C(=O)O (racemic)
154 to 155	Nc1cc2c(cc1Oc1ccccc1)C(=O)CCO2
178	CS(=O)(=O)C(=C1CN(C(c2ccccc2)c2ccccc2)C1)c1cccc(C(F)(F)F)c1
262 to 265	O=C1NC(=O)C(c2cn3c4c(cccc24)CCC3)=C1c1ccc(OCc2ccccc2)cc1
87 to 92	COc1c(CC(=O)O)cccc1Oc1ccccc1Cl
170	c1ccc(CSc2nc3cc4ccccc4cc3[nH]2)nc1
88 to 89	OCc1cn(Cc2ccc(OCc3ccccc3)cc2)nc1-c1ccccc1
135 to 137	O=C(O)[C@H](Oc1c(Br)cc(-c2c3ccccc3c(Br)c3sc4ccccc4c23)cc1Br)c1ccccc1
133 to 135	Cn1cc(C(=O)NCc2ccc(Cl)cc2)c(=O)c2cc(CN(CCO)Cc3ccccc3)ccc21
50 to 51	CC1(C)C=Cc2cc(OCc3ccccc3)c(OCc3ccccc3)cc2O1
88 to 90	CN1N=C2C(=Cc3ccccc3)CN(C(=O)CCl)CC2C1c1ccccc1 (stereo not given)
128 to 131	COC(=O)c1cccc2c1ccn2Cc1ccc(OCc2ccc3ccccc3n2)cc1
213 to 215	COCn1c(C)nc2c3c(c(C(=O)N(C)C)cc21)CCC(c1ccccc1)O3 (stereo not given)
141	COCCOc1cc(Oc2ccccc2)cnc1Nc1nccs1

melting point [°C]	SMILES
122 to 124	Cc1nc(-c2ccccc2)nc(-c2cccc([N+](=O)[O-])c2)c1C(=O)NCCN(C)C
172 to 174	COC(=O)c1c(Cc2ccc(S(=O)(=O)CCO)cc2)c(=O)c2ccc(Cl)cc2n1-c1ccccc1
240 to 242	CC(C)c1c(C(=O)Nc2ccc(C(=O)O)cc2)c(-c2ccccc2)c(-c2ccc(F)cc2)n1CC[C@@H]1C[C@H](CC(=O)OC(C)(C)C)OC(C)(C)O1
160	COc1cc(C=CC(=O)c2ccccc2N(C)C)cc(OC)c1
315 to 318	Cc1cc(O)ccc1N1CCc2c(C)nc3ccccc3c21
137 to 138	COC(=O)c1cccc(C2=NC(C)(C)Cc3cc(OC)c4c(c32)CC(C)(C)O4)c1
78.5 to 80	O=C(O)CCNC(=O)[C@H](Cc1ccccc1)OP(=O)(O)CCCCc1ccccc1
118	CCc1nnc(-c2ccc(OC)cc2)n1-c1ccccc1C
145 to 146	c1ccc2c(c1)-c1ccccc1C2Cc1nc(COc2ccc(CCCn3ccnc3)cc2)co1
200 to 202	CC(C)n1nc(-c2cnc(Nc3ccccc3)nc2-c2ccccc2)ccc1=O
168 to 169	O=C(O)CS(=O)(=O)c1ccc2c(-c3ccccc3F)noc2c1
85 to 93	Cc1noc(NS(=O)(=O)c2ccccc2-c2ccc(-c3cocn3)cc2)c1C
201 to 204	CC(C)c1nnc(-c2ccc(-c3ccccc3)cc2)n1-c1ccccc1F
280 to 282	Cc1c(-c2ccc([N+](=O)[O-])cc2)sc2c1c(=O)n(-c1ccccc1)c(=O)n2Cc1c(F)cccc1F
229 to 231	O=C1NCc2c(-c3ccccc3)cccc2N1C1CCCCC1
185	COc1ccc(C(=O)Nc2nc3ccc(N(C)C)cc3c(NCc3ccccc3)c2C#N)cc1
153 to 155	Cc1ccc(C(=O)c2ccc(Cc3c(Cl)cc(N)cc3Cl)cc2)cn1
199 to 201	CNc1nc(-c2cccc(-n3cccc3)c2)c2cc(OC)c(OC)cc2n1
94 to 95	COc1cc(CCCn2ccnc2)ccc1OCc1coc(-c2cccs2)n1
128 to 130	CC1=CC2C(=O)NC(=O)C2(Cc2ccccc2)C=C1 (stereo not given)
68 to 70	O=C(CCCOCCc1ccc2ccccc2c1)c1ccc(F)cc1
109 to 110	O=c1oc(-c2c(F)cccc2Cl)nn1-c1ccccc1C(F)(F)F

The remaining lines, values behind:

SMILES	melting point [°C]
Cc1cccc(C(=O)N(C)C)c1N	95 to 96
COc1cc2c(cc1O[Si](C)(C)C(C)(C)C)CN(C(=O)OC(C)(C)C)CC2	46 to 49
Cn1ncc2ccccc2c1=O	111 to 112
CCC1N=C(c2ccccc2Cl)c2cc(CCC(=O)OC)sc2NC1=S (stereo not given)	173 to 176
O=C(O)CCCON1CCNC1=Nc1c(Cl)cccc1Cl	115 to 116
CCCNC(=O)c1ccccc1	87.6 to 88.9
CCC(CC)c1nnc(SC)n(N)c1=O	50 to 56
CCCNCCOc1ccc(NC(=O)c2n[nH]c3c2C(=O)CCC3)cn1	120
Cc1cc(C)cc(/C=C/c2ccc(O)cc2)c1	142
CC#CC(C)(C)NC(=O)C(CC)Oc1ccc2ccncc2c1 (stereo not given)	149 to 150
CC(C)c1cc2c(cc1Oc1cnc(N)nc1N)OCCN2C	167 to 170
N#CC1CCc2cc(C(=O)O)ccc2C1 (stereo not given)	231 to 236
C[C@H](NC(=O)c1ccc([N+](=O)[O-])cc1F)C(=O)O	136 to 138
OC1(c2ccc(-c3cncnc3)cc2)CN2CCC1CC2 (stereo not given)	184 to 185
CCCCc1cc(N)n2nccc2n1	124 to 126
Cc1cc(Br)ccc1NC(=O)c1cc([N+](=O)[O-])ccc1NC(=O)CF	247 to 249
CCCOCCOC(=O)C1=C(C)NC(C)=C(C(=O)C(C)S(=O)(=O)NC)C1c1cccc([N+](=O)[O-])c1 (stereo not given)	120 to 123
c1cn(CCOc2ccc(-c3nnn[nH]3)cc2)cn1	196 to 197
COc1ccc(C=O)c(OCC#N)c1	96 to 101
O=C(O)CS(=O)(=O)c1cccc(C(=O)C2CCC3(CCNCC3)CC2)c1	134 to 138
Clc1ccc2c(c1)C(c1ccccc1)=NCc1nnc(C(Cl)Cl)n1-2	193 to 196
CCCCC=C1SC(=S)N(N=c2sc3ccccc3s2)C1=O	210 to 212
O=c1[nH]c(=O)c2c1c1oc3ccccc3oc1c1[nH]c3cc(O)ccc3c12	> 340
CCc1cc(-n2cncn2)ncn1	75 to 76
CC1=C(C(=O)OCC2COc3ccccc3O2)C(c2c(F)c(F)c(F)c(F)c2F)C2=C(CNCC2=O)N1 (stereo not given)	167 to 170
COc1ccc(C(=O)C2CCC(CCO)CC2)cc1O (stereo not given)	107 to 109
Cc1cc(N)n(C(=NO)c2cccc([N+](=O)[O-])c2)n1	224 to 226
COC(=O)NCc1cc(C(C)=NO)ccc1Cl	124 to 127

SMILES	melting point [°C]
O=C(N[C@H]1CC[C@H](CCN2CCN(c3nccc4c3OCC4)CC2)CC1)c1ccc(N2CCOCC2)cc1	242
COc1cc(N=C=S)nc(OC)c1	85 to 86
COc1cc(Nc2c(C#N)cnc3cc(-c4ccc(C=O)cc4)ccc23)c(Cl)cc1Cl	248 to 251
O=C(Nc1cc(C(F)(F)F)cc(C(F)(F)F)c1)c1cc(Cl)cnc1O	> 270
CCCCCCCCCCCCC(O)CNCCCCCCNCC(O)CCCCCCCCCCCC (stereo not given)	118 to 121
Cc1nc2ccccc2cc1NC(=S)N1CCN(c2cc(F)cc(F)c2)CC1	211 to 213
O=C1NC(=O)N2c3ccccc3[C@H]3CCN4CCC[C@H]1[C@H]4[C@H]32 (racemic)	235
COC(=O)N(C)c1cccc(C(=O)C=CN(C)C)c1	93 to 95
CN1C(=O)C(C)(C)N=C(c2ccccc2F)c2cc(NC(=O)OCc3ccccc3)cc(Cl)c21	125 to 127
CS(=O)(=O)c1ccc(-c2cnn(CC(F)(F)F)c(=O)c2Cl)cc1	221 to 222
Sc1nc2cnc3ccccc3c2s1	282 to 284
CCCN1CC(C)CC2c3cccc4[nH]c(SC)c(c34)CC21 (stereo not given)	216 to 219
CCC(=O)Nc1ccc(C)c(O)c1C	140
Cc1c(NC(=O)c2ccc(CC(=O)C3CCOC3)cc2)ccc2cc(CN3CCCC3)cnc12 (stereo not given)	142 to 143
Cc1nc2c3c(ccn2c1C)C(O)CC(c1ccsc1)N3 (stereo not given)	192 to 194
Cc1nnc(-c2ccc3occ(-c4ccc(S(C)(=O)=O)c(F)c4)c3c2)o1	199 to 200
CCOC(=O)CNC(=O)Nc1ccc(S(=O)(=O)Nc2onc(C)c2C)cc1	115 to 125
COc1ccc(C)c(NC(=O)CC23CC4CC(CC(C4)C2)C3)c1	147
[N-]=[N+]=NC(=O)c1csc(Cl)n1	> 250
CCCOc1n[nH]c(=O)n1C1CCCCC1	132 to 136
O=C1C=C(O)CC(c2ccccc2)N1 (stereo not given)	166 to 169
O=C1OCc2c1cc1ccc3c(c1c2-c1ccc(Cl)cc1)OCO3	225 to 227
Fc1cccc(-c2ccc(Cl)nn2)c1	133 to 135
CCN1c2ncc(C=O)cc2C(=O)N(C)c2ccc(Cl)nc21	199 to 201
CCOC(=O)[C@@H]1CCC(=O)N1C(=O)OC(C)(C)C	48 to 49
CCC(=O)NCC1CC1c1cccc2nc(C(F)(F)F)cn12 (stereo not given)	148 to 151
CN(C(=O)OC(C)(C)C)c1sc(-c2cncc(F)c2)nc1I	70 to 71
